Experimental data reported in patent publication US20250122192A1, “5-PYRIMIDINECARBOXAMIDE DERIVATIVES AND METHODS OF USING THE SAME” (Rgenta Therapeutics, Inc., priority 2021, published 2025).

system: PMS1; assay: Mini-gene reporter assay-PMS1; format: cell-based; details: Homo sapiens, HEK293, PMS1 mini-gene firefly luciferase reporter transiently transfected into HEK293 cells; read-out: PMS1 IC50
How it was run: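 HEK293 cells transiently transfected with a mini-gene construct: skipped exon with flanking introns and exons fused to firefly luciferase in pcDNA3.1, so exon inclusion raises luciferase signal. Compounds tested in duplicate dilutions, luminescence read after incubation, EC50 fitted by Levenberg-Marquardt.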

Row | SMILES | IC50
1 | CCOc1nc(N2CCC3(CC2)CNC3)ncc1C(=O)Nc1cn2cc(C)nc2c(C)n1 [Compound 86] | < 500 nM
2 | CCOc1nc(N2CC3(CCCNC3)C2)ncc1C(=O)Nc1cn2cc(C)nc2c(C)n1 [Compound 87] | 1000 to 3000 nM
3 | CCOc1nc(N2CCNCC3(CC3)C2)ncc1C(=O)Nc1cn2cc(C)nc2c(C)n1 [Compound 92] | 1000 to 3000 nM
4 | CCOc1nc(N2CCC3(CC2)COCCN3)ncc1C(=O)Nc1cn2cc(C)nc2c(C)n1 [Compound 94] | > 3000 nM
5 | CCOc1nc(N2CCCNCC2)ncc1C(=O)Nc1cn2cc(C)nc2c(C)n1 [Compound 103] | 1000 to 3000 nM
6 | CCOc1nc(N2CC3(CNCCO3)C2)ncc1C(=O)Nc1cn2cc(C)nc2c(C)n1 [Compound 104] | > 3000 nM
7 | CCOc1nc(N2CCC3(CCCNC3)C2)ncc1C(=O)Nc1cn2cc(C)nc2c(C)n1 (stereo not shown) [Compound 106] | > 3000 nM
8 | CCOc1nc(N2CCC(N3CCNCC3)C2)ncc1C(=O)Nc1cc(F)c2nc(C)cn2c1 (stereo not shown) [Compound 107] | 1000 to 3000 nM
9 | CCOc1nc(N2CCCC(C3CCNC3)C2)ncc1C(=O)Nc1cc(F)c2nc(C)cn2c1 (stereo not shown) [Compound 108] | 500 to 1000 nM
10 | CCOc1nc(N2CCNCC(CO)C2)ncc1C(=O)Nc1cc(F)c2nc(C)cn2c1 (stereo not shown) [Compound 109] | 1000 to 3000 nM
11 | CCOc1nc(N2CCNCC2C(F)F)ncc1C(=O)Nc1cc(F)c2nc(C)cn2c1 (stereo not shown) [Compound 112] | 1000 to 3000 nM
12 | CCOc1nc(N2CCNCC3(CC3)C2)ncc1C(=O)Nc1cc(F)c2nc(C)cn2c1 [Compound 116] | < 500 nM
13 | CCOc1nc(N2CCC(C3CCCN3)C2)ncc1C(=O)Nc1cc(F)c2nc(C)cn2c1 (stereo not shown) [Compound 120] | < 500 nM
14 | CCOc1nc(N2CCCNC(CO)C2)ncc1C(=O)Nc1cc(F)c2nc(C)cn2c1 (stereo not shown) [Compound 121] | 1000 to 3000 nM
15 | CCOc1nc(N2CCCC3NCCCC32)ncc1C(=O)Nc1cc(F)c2nc(C)cn2c1 (stereo not shown) [Compound 122] | 500 to 1000 nM
16 | CCOc1nc(N2CCC3CCCC(C2)N3)ncc1C(=O)Nc1cc(F)c2nc(C)cn2c1 (stereo not shown) [Compound 126] | 1000 to 3000 nM
17 | CCOc1nc(N2C3CCCC2CNC3)ncc1C(=O)Nc1cc(F)c2nc(C)cn2c1 [Compound 130] | 1000 to 3000 nM
18 | CCOc1nc(N2CC(C)CNC(C)C2)ncc1C(=O)Nc1cc(F)c2nc(C)cn2c1 (stereo not shown) [Compound 131] | 500 to 1000 nM

Row | SMILES | IC50
19 | CCOc1nc(N2CCC3CCNCC3C2)ncc1C(=O)Nc1cc(F)c2nc(C)cn2c1 (stereo not shown) [Compound 135] | 500 to 1000 nM
20 | CCOc1nc(N2CCN(C3CCNCC3)CC2)ncc1C(=O)Nc1cc(F)c2nc(C)cn2c1 [Compound 137] | > 3000 nM
21 | CCOc1nc(N2CC(C3CCNCC3)C2)ncc1C(=O)Nc1cc(F)c2nc(C)cn2c1 [Compound 141] | 500 to 1000 nM
22 | CCOc1nc(N2CCC(C3CNC3)CC2)ncc1C(=O)Nc1cc(F)c2nc(C)cn2c1 [Compound 142] | 1000 to 3000 nM
23 | CCOc1nc(N2CC(C3CNC3)C2)ncc1C(=O)Nc1cc(F)c2nc(C)cn2c1 [Compound 143] | < 500 nM
24 | CCOc1nc(N2CCOC3(CNC3)C2)ncc1C(=O)Nc1cc(F)c2nc(C)cn2c1 [Compound 144] | > 3000 nM
25 | CCOc1nc(N2CCOC3(CCCNC3)C2)ncc1C(=O)Nc1cc(F)c2nc(C)cn2c1 (stereo not shown) [Compound 145] | > 3000 nM
26 | CCOc1nc(N2C[C@]3(C)CNC[C@]3(C)C2)ncc1C(=O)Nc1cc(F)c2nc(C)cn2c1 [Compound 148] | 1000 to 3000 nM
27 | CCOc1nc(N2CC(C)OC3(CCNC3)C2)ncc1C(=O)Nc1cc(F)c2nc(C)cn2c1 (stereo not shown) [Compound 149] | > 3000 nM
28 | CCOc1nc(N2CCCCC(C3CNC3)C2)ncc1C(=O)Nc1cc(F)c2nc(C)cn2c1 (stereo not shown) [Compound 150] | 1000 to 3000 nM
29 | CCOc1nc(N2CC34CCCC3(CNC4)C2)ncc1C(=O)Nc1cc(F)c2nc(C)cn2c1 (stereo not shown) [Compound 151] | 1000 to 3000 nM
30 | CCOc1nc(N2CC3(CCNCC3)CC2C)ncc1C(=O)Nc1cc(F)c2nc(C)cn2c1 (stereo not shown) [Compound 152] | 500 to 1000 nM
31 | CCOc1nc(N2C3CCC2CC(NC)C3)ncc1C(=O)Nc1cc(F)c2nc(C)cn2c1 (stereo not shown) [Compound 157] | < 500 nM
32 | CCOc1nc(N2CCCC(C3CNC3)C2)ncc1C(=O)Nc1cc(F)c2nc(C)cn2c1 (stereo not shown) [Compound 159] | > 3000 nM
33 | CCOc1nc(N(C)C2CCNCC2C)ncc1C(=O)Nc1cc(F)c2nc(C)cn2c1 (stereo not shown) [Compound 160] | < 500 nM
34 | CCOc1nc(N2CCC(NCC3CC3)CC2)ncc1C(=O)Nc1cc(F)c2nc(C)cn2c1 [Compound 164] | < 500 nM
35 | CCOc1nc(N2CC(CO)C3(CNC3)C2)ncc1C(=O)Nc1cc(F)c2nc(C)cn2c1 (stereo not shown) [Compound 165] | 1000 to 3000 nM

Now from value to compound:

Row | IC50 | SMILES
36 | < 500 nM | CCOc1nc(N2CCC3(CCNCC3)C2)ncc1C(=O)Nc1cn2cc(C)nc2c(C)n1 [Compound 88]
37 | > 3000 nM | CCOc1nc(N2CCC3(CCNC3)CC2)ncc1C(=O)Nc1cn2cc(C)nc2c(C)n1 [Compound 89]
38 | 1000 to 3000 nM | CCOc1nc(N2CCC3(CCCCN3)C2)ncc1C(=O)Nc1cn2cc(C)nc2c(C)n1 (stereo not shown) [Compound 96]
39 | 1000 to 3000 nM | CCOc1nc(N2CC3CCC2C2CNCC32)ncc1C(=O)Nc1cn2cc(C)nc2c(C)n1 (stereo not shown) [Compound 97]
40 | < 500 nM | CCOc1nc(N2CCC(NC)C2)ncc1C(=O)Nc1cn2cc(C)nc2c(C)n1 (stereo not shown) [Compound 99]
41 | > 3000 nM | CCNC1CN(c2ncc(C(=O)Nc3cn4cc(C)nc4c(C)n3)c(OCC)n2)C1 [Compound 100]
42 | 500 to 1000 nM | CCOc1nc(N2CCNC(C)C2)ncc1C(=O)Nc1cn2cc(C)nc2c(C)n1 (stereo not shown) [Compound 102]
43 | 1000 to 3000 nM | CCOc1nc(N2CCNC(CC(F)F)C2)ncc1C(=O)Nc1cc(F)c2nc(C)cn2c1 (stereo not shown) [Compound 110]
44 | > 3000 nM | CCOc1nc(N2CCNC(CF)C2)ncc1C(=O)Nc1cc(F)c2nc(C)cn2c1 (stereo not shown) [Compound 111]
45 | 1000 to 3000 nM | CCOc1nc(N2CCNCC2C2CC2)ncc1C(=O)Nc1cc(F)c2nc(C)cn2c1 (stereo not shown) [Compound 113]
46 | < 500 nM | CCOc1nc(N2CC3=C(CNC3)C2)ncc1C(=O)Nc1cc(F)c2nc(C)cn2c1 [Compound 114]
47 | > 3000 nM | CCOc1nc(N2CCNC(C(F)F)C2)ncc1C(=O)Nc1cc(F)c2nc(C)cn2c1 (stereo not shown) [Compound 115]
48 | 1000 to 3000 nM | CCOc1nc(N(C)C[C@H]2[C@@H]3CNC[C@@H]32)ncc1C(=O)Nc1cc(F)c2nc(C)cn2c1 [Compound 117]
49 | 1000 to 3000 nM | CCOc1nc(N2CCNCC(C)(C)C2)ncc1C(=O)Nc1cc(F)c2nc(C)cn2c1 [Compound 118]
50 | < 500 nM | CCOc1nc(N2CCC(CNC(C)C)CC2)ncc1C(=O)Nc1cc(F)c2nc(C)cn2c1 [Compound 119]
51 | < 500 nM | CCOc1nc(N2CCC(C3NCC3(C)C)CC2)ncc1C(=O)Nc1cc(F)c2nc(C)cn2c1 (stereo not shown) [Compound 123]

Row | IC50 | SMILES
52 | 500 to 1000 nM | CCOc1nc(N2CC3C4CCC(NC4)C3C2)ncc1C(=O)Nc1cc(F)c2nc(C)cn2c1 (stereo not shown) [Compound 125]
53 | 500 to 1000 nM | CCOc1nc(N2CCC(C3CCNC3)C2)ncc1C(=O)Nc1cc(F)c2nc(C)cn2c1 (stereo not shown) [Compound 127]
54 | < 500 nM | CCOc1nc(N2CC3CCC2C2CNCC32)ncc1C(=O)Nc1cc(F)c2nc(C)cn2c1 (stereo not shown) [Compound 128]
55 | > 3000 nM | CCOc1nc(N2CCC(C3(O)CNC3)CC2)ncc1C(=O)Nc1cc(F)c2nc(C)cn2c1 [Compound 129]
56 | < 500 nM | CCOc1nc(N2CCCC3CNCCC32)ncc1C(=O)Nc1cc(F)c2nc(C)cn2c1 (stereo not shown) [Compound 132]
57 | 500 to 1000 nM | CCOc1nc(N2CCC(C3NCC34CCC4)CC2)ncc1C(=O)Nc1cc(F)c2nc(C)cn2c1 (stereo not shown) [Compound 133]
58 | 1000 to 3000 nM | CCOc1nc(N2CC3CNC(C3)C2)ncc1C(=O)Nc1cc(F)c2nc(C)cn2c1 (stereo not shown) [Compound 134]
59 | < 500 nM | CCOc1nc(N2CC3CNCCC32)ncc1C(=O)Nc1cc(F)c2nc(C)cn2c1 (stereo not shown) [Compound 136]
60 | 1000 to 3000 nM | CCOc1nc(N(C)C2CCCCNC2)ncc1C(=O)Nc1cc(F)c2nc(C)cn2c1 (stereo not shown) [Compound 138]
61 | < 500 nM | CCOc1nc(N2CCCC(C3CCNCC3)C2)ncc1C(=O)Nc1cc(F)c2nc(C)cn2c1 (stereo not shown) [Compound 146]
62 | < 500 nM | CCOc1nc(N2CCCC(C3CCCCN3)C2)ncc1C(=O)Nc1cc(F)c2nc(C)cn2c1 (stereo not shown) [Compound 147]
63 | < 500 nM | CCNC1CCN(c2ncc(C(=O)Nc3cc(F)c4nc(C)cn4c3)c(OCC)n2)C1 (stereo not shown) [Compound 154]
64 | < 500 nM | CCOc1nc(N2CCC(NCCOC)CC2)ncc1C(=O)Nc1cc(F)c2nc(C)cn2c1 [Compound 155]
65 | < 500 nM | CCOc1nc(N(C)[C@H]2CCCNC2)ncc1C(=O)Nc1cc(F)c2nc(C)cn2c1 [Compound 163]
66 | 1000 to 3000 nM | CCOc1nc(N2CC34CCCCC3(CNC4)C2)ncc1C(=O)Nc1cc(F)c2nc(C)cn2c1 (stereo not shown) [Compound 166]

same assay, conditions: Homo sapiens; at 5 μM; PMS1 mini-gene firefly luciferase reporter in HEK293 cells; read-out: PMS1% Effect at 5 μM

Row | SMILES | activation at 5 µM
67 | CCOc1nc(N2CC(CO)C3(CCNCC3)C2)ncc1C(=O)Nc1cn2cc(C)nc2c(C)n1 (stereo not shown) [Compound 91] | < 50%
68 | CCOc1nc(N2CCNCC(F)(F)C2)ncc1C(=O)Nc1cc(F)c2nc(C)cn2c1 [Compound 140] | < 50%
69 | CCOc1nc(N2CCCC(OC3CNC3)C2)ncc1C(=O)Nc1cc(F)c2nc(C)cn2c1 (stereo not shown) [Compound 153] | 50 to 75%
70 | CCOc1nc(N2CC(C)OC3(CCNCC3)C2)ncc1C(=O)Nc1cc(F)c2nc(C)cn2c1 (stereo not shown) [Compound 162] | < 50%
